Where a name gives a salt, the structure may show the parent alone.
What was measured:
Settings in all cases: exposure time: 72 h
[1] = test system: E13 (patient-derived glioblastoma stem cells of classical subtype); experiment: phenotypic distance (Euclidean, principal components) from DMSO controls (arbitrary units); higher = stronger morphological change
[2] = test system: E28 (patient-derived glioblastoma stem cells of classical subtype); experiment: as above
[3] = test system: E57 (patient-derived glioblastoma stem cells of mesenchymal subtype); experiment: as above
[4] = test system: E31 (patient-derived glioblastoma stem cells of proneural subtype); experiment: as above
[5] = test system: E34 (patient-derived glioblastoma stem cells of proneural subtype); experiment: as above
[6] = test system: E21 (patient-derived glioblastoma stem cells of mesenchymal subtype); experiment: as above
[7] = test system: FT3469 (normal neural stem cell line); experiment: as above
[8] = test system: E13; experiment: surviving fraction (nuclei count normalised to DMSO); higher = more cells surviving (less toxic)
[9] = test system: E28; experiment: as above
[10] = test system: E57; experiment: as above
[11] = test system: E31; experiment: as above
[12] = test system: E34; experiment: as above
[13] = test system: E21; experiment: as above
[14] = test system: FT3469; experiment: as above
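Wherever phenotypic distance (Euclidean, principal components) from DMSO controls is given: cell Painting imaging in 384-well plates, CellProfiler features reduced to at least 20 principal components, Euclidean distance versus same-plate DMSO vehicle wells (0.1% v/v), median over six images per well.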
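Wherever surviving fraction (nuclei count normalised to DMSO) is given: nuclei counted by high-content imaging of Hoechst-stained cells in laminin-coated 384-well plates, relative to 0.1% DMSO vehicle wells, with staurosporine as cell-death control.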

CCc1c2c(nc3ccc(OC(=O)N4CCC(N5CCCCC5)CC4)cc13)-c1cc3c(c(=O)n1C2)COC(=O)[C@]3(O)CC [Irinotecan]
Settings	phenotypic distance	surviving fraction
[1], 4.1 nM	0.394	–
[1], 12.3 nM	1.01	–
[1], 37 nM	0.761	–
[1], 111.1 nM	0.76	–
[1], 333.3 nM	1.35	–
[1], 1000 nM	2.55	–
[1], 3000 nM	5.65	–
[2], 4.1 nM	0.5	–
[2], 12.3 nM	0.951	–
[2], 37 nM	0.608	–
[2], 111.1 nM	0.966	–
[2], 333.3 nM	1.51	–
[2], 1000 nM	3.61	–
[2], 3000 nM	4.49	–
[3], 4.1 nM	0.685	–
[3], 12.3 nM	0.929	–
[3], 37 nM	0.554	–
[3], 111.1 nM	0.781	–
[3], 333.3 nM	1.52	–
[3], 1000 nM	3.59	–
[3], 3000 nM	7.66	–
[4], 4.1 nM	0.6	–
[4], 12.3 nM	0.75	–
[4], 37 nM	0.721	–
[4], 111.1 nM	0.569	–
[4], 333.3 nM	1.07	–
[4], 1000 nM	1.39	–
[4], 3000 nM	3.35	–
[5], 4.1 nM	0.814	–
[5], 12.3 nM	0.597	–
[5], 37 nM	0.83	–
[5], 111.1 nM	0.866	–
[5], 333.3 nM	2.22	–
[5], 1000 nM	4.25	–
[5], 3000 nM	3.72	–
[6], 4.1 nM	0.618	–
[6], 12.3 nM	1.21	–
[6], 37 nM	0.691	–
[6], 111.1 nM	1.31	–
[6], 333.3 nM	1.88	–
[6], 1000 nM	3.97	–
[6], 3000 nM	5.51	–
[7], 4.1 nM	0.701	–
[7], 12.3 nM	1.1	–
[7], 37 nM	1.06	–
[7], 111.1 nM	1.22	–
[7], 333.3 nM	1.84	–
[7], 1000 nM	2.27	–
[7], 3000 nM	2.46	–
[8], 4.1 nM	–	0.966
[8], 12.3 nM	–	1.03
[8], 37 nM	–	1
[8], 111.1 nM	–	0.975
[8], 333.3 nM	–	0.974
[8], 1000 nM	–	0.784
[8], 3000 nM	–	0.418
[9], 4.1 nM	–	1.21
[9], 12.3 nM	–	1.07
[9], 37 nM	–	1.07
[9], 111.1 nM	–	0.969
[9], 333.3 nM	–	0.765
[9], 1000 nM	–	0.541
[9], 3000 nM	–	0.302
[10], 4.1 nM	–	1.08
[10], 12.3 nM	–	1.02
[10], 37 nM	–	0.935
[10], 111.1 nM	–	0.931
[10], 333.3 nM	–	1.01
[10], 1000 nM	–	0.658
[10], 3000 nM	–	0.189
[11], 4.1 nM	–	0.946
[11], 12.3 nM	–	1.1
[11], 37 nM	–	0.899
[11], 111.1 nM	–	0.922
[11], 333.3 nM	–	0.946
[11], 1000 nM	–	0.579
[11], 3000 nM	–	0.144
[12], 4.1 nM	–	1.01
[12], 12.3 nM	–	0.922
[12], 37 nM	–	0.796
[12], 111.1 nM	–	0.981
[12], 333.3 nM	–	0.942
[12], 1000 nM	–	0.675
[12], 3000 nM	–	0.542
[13], 4.1 nM	–	1.03
[13], 12.3 nM	–	1.08
[13], 37 nM	–	0.918
[13], 111.1 nM	–	1.03
[13], 333.3 nM	–	0.883
[13], 1000 nM	–	0.589
[13], 3000 nM	–	0.124
[14], 4.1 nM	–	1.03
[14], 12.3 nM	–	0.94
[14], 37 nM	–	0.96
[14], 111.1 nM	–	0.904
[14], 333.3 nM	–	0.739
[14], 1000 nM	–	0.748
[14], 3000 nM	–	0.648

CC(C)NCC(O)c1ccc(O)c(O)c1 (stereo unspecified) [Isoproterenol hydrochloride]
Settings	phenotypic distance	surviving fraction
[1], 4.1 nM	1.71	–
[1], 12.3 nM	1.34	–
[1], 37 nM	1.11	–
[1], 111.1 nM	0.927	–
[1], 333.3 nM	0.863	–
[1], 1000 nM	0.656	–
[1], 3000 nM	0.895	–
[2], 4.1 nM	1.26	–
[2], 12.3 nM	0.749	–
[2], 37 nM	0.577	–
[2], 111.1 nM	0.661	–
[2], 333.3 nM	0.903	–
[2], 1000 nM	0.652	–
[2], 3000 nM	0.87	–
[3], 4.1 nM	0.878	–
[3], 12.3 nM	0.696	–
[3], 37 nM	0.871	–
[3], 111.1 nM	1.09	–
[3], 333.3 nM	1.1	–
[3], 1000 nM	3.04	–
[3], 3000 nM	1.28	–
[4], 4.1 nM	3.31	–
[4], 12.3 nM	0.604	–
[4], 37 nM	0.63	–
[4], 111.1 nM	0.645	–
[4], 333.3 nM	0.706	–
[4], 1000 nM	0.745	–
[4], 3000 nM	0.88	–
[5], 4.1 nM	0.806	–
[5], 12.3 nM	0.933	–
[5], 37 nM	0.861	–
[5], 111.1 nM	0.633	–
[5], 333.3 nM	0.9	–
[5], 1000 nM	0.781	–
[5], 3000 nM	0.963	–
[6], 4.1 nM	1.03	–
[6], 12.3 nM	0.961	–
[6], 37 nM	0.559	–
[6], 111.1 nM	0.37	–
[6], 333.3 nM	0.707	–
[6], 1000 nM	0.442	–
[6], 3000 nM	0.786	–
[7], 4.1 nM	1.05	–
[7], 12.3 nM	0.977	–
[7], 37 nM	1.54	–
[7], 111.1 nM	0.756	–
[7], 333.3 nM	1.08	–
[7], 1000 nM	0.765	–
[7], 3000 nM	1.18	–
[8], 4.1 nM	–	0.935
[8], 12.3 nM	–	0.961
[8], 37 nM	–	1.01
[8], 111.1 nM	–	0.949
[8], 333.3 nM	–	0.974
[8], 1000 nM	–	0.842
[8], 3000 nM	–	1
[9], 4.1 nM	–	1.14
[9], 12.3 nM	–	1.19
[9], 37 nM	–	1.05
[9], 111.1 nM	–	1.09
[9], 333.3 nM	–	1.17
[9], 1000 nM	–	1.1
[9], 3000 nM	–	1.22
[10], 4.1 nM	–	1.01
[10], 12.3 nM	–	0.941
[10], 37 nM	–	0.999
[10], 111.1 nM	–	0.974
[10], 333.3 nM	–	1.12
[10], 1000 nM	–	1.14
[10], 3000 nM	–	1.11
[11], 4.1 nM	–	0.999
[11], 12.3 nM	–	1.05
[11], 37 nM	–	0.967
[11], 111.1 nM	–	0.989
[11], 333.3 nM	–	1.02
[11], 1000 nM	–	1.27
[11], 3000 nM	–	1.24
[12], 4.1 nM	–	1.03
[12], 12.3 nM	–	1
[12], 37 nM	–	1.13
[12], 111.1 nM	–	1.09
[12], 333.3 nM	–	1.15
[12], 1000 nM	–	1.11
[12], 3000 nM	–	1.11
[13], 4.1 nM	–	0.983
[13], 12.3 nM	–	0.836
[13], 37 nM	–	0.946
[13], 111.1 nM	–	0.954
[13], 333.3 nM	–	0.957
[13], 1000 nM	–	1.03
[13], 3000 nM	–	0.989
[14], 4.1 nM	–	0.975
[14], 12.3 nM	–	1.04
[14], 37 nM	–	0.928
[14], 111.1 nM	–	1.15
[14], 333.3 nM	–	1.18
[14], 1000 nM	–	1.04
[14], 3000 nM	–	1.1
